Results as given in US9533049B2, “Method for preparing nanoparticles based on functional amphiphilic molecules or macromolecules, and the use thereof” (UNIVERSITE VICTOR SEGALEN BOURDEAUX 2, priority 2007, dated 2017).

Tests used:
Assay type in all cases: cell-based
IGROV1 cells [1] = assay: Cytotoxicity, MTS colorimetric assay (Example 21); details: IGROV1, incubation time 24 h
Method: 1000 to 5000 IGROV1 cells are incubated in 100 μL of medium with serum per well (96-well plate). After 24 h the medium is removed and the cells are treated for 1 to 3 days with the formulations according to the invention and/or free cis-Pt (at the desired concentrations). The cells are incubated at 37° C. in 200 μL of medium with serum.
(§1) The survival of the cells was determined, and the overall percentage of death (or cytotoxicity) obtained at the different concentrations of formulations tested was compared with that obtained with the negative controls (untreated cells). The cytotoxicity results were presented in the form of dose-effect curves characterized by their inhibitory concentration 50 (IC50), i.e. the concentration at which 50% dead cells are observed.

[2] = tested on: SKOV3 (ovarian adenocarcinoma line, resistant to cis-platin); assay: Cytotoxicity, MTS assay (Example 22), SKOV3; details: SKOV3, treatment 24 hours in medium without serum, MTS 48 hours after washing; read-out: concentration necessary to obtain 50% cell death (IC50)
Method: (§2) 2500 cells (IGROV1, SKOV3, ovarian adenocarcinoma lines) per well are incubated in 100 μL of the medium with serum in a 96-well plate. After 24 hours the medium is aspirated and the cells are treated with free cis-platin or cis-platin encapsulated in the nanoparticles of Example 16 in 100 μL of the medium without serum at different concentrations (500, 100, 10, 1, 0.1, 0.01, 0.001 μM). After treatment for 24 hours, the medium is removed and the cells are washed twice with 100 μL of PBS then incubated with 100 μL of the medium with serum.
(§3) The absorbance at 490 nm is measured after incubation for 2 to 4 hours at 37° C. The absorbance is proportional to the cell viability.

IGROV1 cells [3] = assay: Assay of intracellular cis-platin (ICP optical assay after cell lysis); details: 10^6 cells, 100 μM, 2 h
Method: IGROV1 cells (ovarian adenocarcinoma line) at 80% confluence (dish 10 cm in diameter) are treated with 100 μM of free cis-platin or cis-platin encapsulated in the nanoparticles of Example 16 for 2, 4 or 6 h. On completion of this treatment two washings with PBS are carried out. The cells are treated with trypsin and resuspended in PBS. Two washings of the cell suspensions with PBS are carried out (centrifugation 1000 rpm/1 min). The cells are suspended in 1 mL of PBS and counted.
10^6 cells are lysed with 500 μL of the cell lysis solution (lysis buffer from SIGMA). The volume is topped up to 5 mL with milli-Q water with 1% HNO3 acid.

[4] = tested on: human cancer cell line HCT8 (colorectal adenocarcinoma); assay: Cytotoxicity, crystal violet staining, HCT8 line; details: HCT8, short exposure 30 min in physiological serum; preliminary results
Method: The test implemented uses the human cancer cell line HCT8 (colorectal adenocarcinoma), known for its intrinsic resistance to platinum derivatives.
The protocol is as follows: • […], the cells are implanted in 96-well plates at a density of 50,000 cells per well. • On D0, the cells are treated by the formulation test, either for a short exposure period (30 min) in physiological serum, or for a long exposure period (72 h) in culture medium. The range of concentrations produced comprises the points 0-0.4-0.8-1.5-3-6.25-12.5-25-50 and 100 mg/L. Negative controls (untreated cells) and positive controls (cis-platin) were carried out simultaneously. • On D3, the culture medium is changed, and the 72 h treatment stopped. • On D6, the protocol is completed, and the cells remaining at the bottom of the well are stained with crystal violet.
as §1, with “different test formulation” for “different”, “concentrations” for “concentrations of formulations tested”

[5] = tested on: IGROV1 (ovarian adenocarcinoma line, sensitive to cis-platin); assay: Cytotoxicity, MTS assay (Example 22), IGROV1; details: IGROV1, treatment 24 hours in medium without serum, MTS 48 hours after washing; read-out: concentration necessary to obtain 50% cell death (IC50)
Method: as §2, §3

N.N.[Cl][Pt][Cl] [cis-platin]
IC50 Expressed (IGROV1 cells [1]; mg/L of cis-platin): 9.48 µg/mL | IC50 (IGROV1 cells [1]; read-out: IC50 Expressed): 31.6 µM | IC50 [2]: 4.3 µM | cis-platin internalized (IGROV1 cells [3]): 0.5 nmol | IC50 (mg/L) [4]: IC50 > at 100 mg/L | IC50 [5]: 2.41 µM
